Assay: rat acute oral toxicity
Settings: in vivo

Structure (SMILES)	LD50
CC(C)(C)c1ccc(CSc2cnn(C(C)(C)C)c(=O)c2Cl)cc1	570 mg/kg
O=C(O)C1C2CCC(O2)C1C(=O)O (stereo unspecified)	38 mg/kg
CCOC(=O)CCl	50 mg/kg
CC=Cc1ccc2c(c1)OCO2	1300 mg/kg
C=C(C)C(=O)OCCN=C=O	670 mg/kg
O=C1NC(=O)C2C3C(C(O)(c4ccccc4)c4ccccn4)=CC(C3=C(c3ccccc3)c3ccccn3)C12 (stereo unspecified)	3.8 mg/kg
CN(C)c1ccccc1	951 mg/kg
O=C(NC(=O)c1c(F)cccc1F)Nc1ccc(Cl)cc1	790 mg/kg
COP(=S)(OC)Oc1ccc([N+](=O)[O-])c(C)c1	250 mg/kg
CC(=O)C(Cl)C(=O)N(C)C (stereo unspecified)	275 mg/kg
Cc1ncc2n1-c1ccc(Cl)cc1C(c1ccccc1F)=NC2	215 mg/kg
COCCCN	598 mg/kg
N=C(Nc1ccccc1)Nc1ccccc1	107 mg/kg
CCSC(=O)N(CC)C1CCCCC1	1680 mg/kg
CCCCOCCOC(C)=O	1880 mg/kg
Cc1ccccc1C(OCCN(C)C)c1ccccc1 (stereo unspecified)	255 mg/kg
CCOP(=O)(OCC)OP(=O)(OCC)OCC	0.5 mg/kg
CCCCCCCCCCCCCCCC[N+](C)(C)C	450 mg/kg
CCNCCO	1000 mg/kg
C[Si](C)(C)N[Si](C)(C)C	847 mg/kg
CCC(C)NC1CCC(CC2CCC(NC(C)CC)CC2)CC1 (stereo unspecified)	266 mg/kg
CCOc1ccc(NC(N)=O)cc1	1900 mg/kg
CCCC1CO1 (stereo unspecified)	1330 mg/kg
Nc1ccccc1N	510 mg/kg
CCCCCCCCOC(=O)c1ccccc1C(=O)OCCCCCCCC	47000 mg/kg

Structure (SMILES)	LD50
ClC1=C(Cl)[C@]2(Cl)[C@H]3[C@H]([C@@H]4C=C[C@H]3C4)[C@@]1(Cl)C2(Cl)Cl (racemic)	39 mg/kg
CN(CC[C@H](N)CC(O)=N[C@H]1C=C[C@H](n2ccc(=N)nc2O)O[C@@H]1C(=O)O)C(=N)N	53.3 mg/kg
CC(C)c1nn(C(=O)NC(C)(C)C)c(=O)n1N	1020 mg/kg
O=C(O)CCS	63 mg/kg
CNC(=O)CC#N	387 mg/kg
CC/C(C)=N/O[Si](C)(O/N=C(\C)CC)O/N=C(\C)CC	2450 mg/kg
CCOP(=S)(OCC)Oc1ccc(S(C)=O)cc1 (stereo unspecified)	1.8 mg/kg
NC(=S)Nc1cccc2ccccc12	3 mg/kg
C[C@@H]1Cc2c(Cl)cc(C(=O)N[C@@H](Cc3ccccc3)C(=O)O)c(O)c2C(=O)O1	20 mg/kg
Nc1c(Cl)c(Cl)nc(C(=O)O)c1Cl	686 mg/kg
CC1(C)CC(=O)CC(C)(C)N1	1330 mg/kg
CCCSP(=O)(OCC)Oc1ccc(Br)cc1Cl (stereo unspecified)	358 mg/kg
CCCOP(=O)(OCCC)Oc1ccc(SC)cc1	61 mg/kg
CN(Cc1cnc2nc(N)nc(N)c2n1)c1ccc(C(=O)N[C@@H](CCC(=O)O)C(=O)O)cc1	135 mg/kg
COCCOCCO	5500 mg/kg
O=[N+]([O-])c1cccc(Cl)c1Cl	381 mg/kg
CC1CCCCN1CCCOC(=O)c1ccc(Cl)c(Cl)c1 (stereo unspecified)	800 mg/kg
C[Si]1(CCC(F)(F)F)O[Si](C)(CCC(F)(F)F)O[Si](C)(CCC(F)(F)F)O1 (stereo unspecified)	180 mg/kg
NC(=O)c1ccccc1O	980 mg/kg
COC(=O)OC(=O)OC	260 mg/kg
CC(C)(N)Cc1ccccc1	151 mg/kg
CN(C)C=O	3000 mg/kg
NC(=O)/C(=C\c1ccc([N+](=O)[O-])o1)c1ccco1	340 mg/kg
OCCOCCOCCOCCO	32700 mg/kg
CC=C1CC2C=CC1C2 (stereo unspecified)	2280 mg/kg

Structure (SMILES)	LD50
CCCCCc1cc(O)c2c(c1)OC(C)(C)[C@@H]1CCC(C)=C[C@@H]21	666 mg/kg
CN(CCCCCC(=O)O)S(=O)(=O)c1ccccc1 (racemic)	3040 mg/kg
Nc1nc[nH]n1	1100 mg/kg
CCC(C)=O	2740 mg/kg
C=Cc1cc(Br)ccc1Br	5790 mg/kg
COc1ccccc1[N+](=O)[O-]	740 mg/kg
Cc1ccc2nc(-c3ccc(N)cc3)sc2c1	5650 mg/kg
CC(C)CCCCCCCO	6400 mg/kg
CC(CCl)OP(=O)(OC(C)CCl)OC(C)CCl (stereo unspecified)	980 mg/kg
CNC(=O)Oc1cccc2c1OC(C)(C)C2	5.15 mg/kg
C1CN(SSN2CCOCC2)CCO1	4300 mg/kg
O=C1OC(O)C(C(Cl)Cl)=C1Cl (stereo unspecified)	128 mg/kg
CCCCC(CC)COS(=O)(=O)O (stereo unspecified)	2840 mg/kg
CCCNC(=O)NS(=O)(=O)c1ccc(Cl)cc1	2150 mg/kg
O=C1O[B-]2(OC1=O)OC(=O)C(=O)O2	175 mg/kg
CCOc1ccc(NC(C)=O)cc1	1650 mg/kg
CC(=O)N[C@@H](CS)C(=O)O	3000 mg/kg
COCCOCCOC	4760 mg/kg
CC(C)(c1ccc(O)cc1)c1ccc(O)cc1	3250 mg/kg
O=P(OCCCl)(OCCCl)OCCCl	466 mg/kg
CCN(CC)N=O	220 mg/kg
C=CC(=O)OCCCC	900 mg/kg
C=CC(=O)OCC1CO1 (stereo unspecified)	150 mg/kg
CCCCCCCCCCCCNC(=N)N	566 mg/kg
CN(C)CC/C=C1\c2ccccc2Sc2ccc(Cl)cc21	200 mg/kg

Structure (SMILES)	LD50
OC[C@@H](O)[C@@H](O)CO	13100 mg/kg
O=C1C=CC(=O)O1	318 mg/kg
CNC1=Nc2ccc(Cl)cc2C(c2ccccc2)=[N+]([O-])C1	392 mg/kg
CCC(C)n1c(=O)[nH]c(C)c(Br)c1=O (stereo unspecified)	641 mg/kg
CS(C)=O	14500 mg/kg
CN(C)CCN(C)C	268 mg/kg
Oc1ccc(Cl)cc1	500 mg/kg
CCn1cc(C(=O)O)c(=O)c2ccc(C)nc21	1160 mg/kg
CCN(CC)C(=S)SSC(=S)N(CC)CC	500 mg/kg
CO[Si](C)(OC)C1CCCCC1	2760 mg/kg
O=C(CCl)c1ccccc1	50 mg/kg
OCCOCCOCCO	17000 mg/kg
ClC(Br)Br	370 mg/kg
O=C1C(Cl)=C(Cl)C(=O)C(Cl)=C1Cl	4000 mg/kg
Cl/C=C\CCl	81.5 mg/kg
NC(=O)CF	5.75 mg/kg
COC(=O)C(C)Oc1ccc(Oc2ccc(Cl)cc2Cl)cc1 (stereo unspecified)	481 mg/kg
C=CC(=O)Nc1ccccc1	300 mg/kg
O=[N+]([O-])c1cccc(Cl)c1	300 mg/kg
O=P(O)(O)CCCl	3400 mg/kg
Cc1ccc(O)c(C)c1	2300 mg/kg
Clc1ccc(C(c2ccc(Cl)cc2)C(Cl)(Cl)Cl)cc1	87 mg/kg
CCCCC(C=O)CC (stereo unspecified)	2600 mg/kg
COc1nc(C)nc(NC(=O)NS(=O)(=O)c2ccccc2Cl)n1	5540 mg/kg
Cc1ccc(O)cc1	207 mg/kg

Structure (SMILES)	LD50
CCOC(=O)CC(O)(CC(=O)OCC)C(=O)OCC	5900 mg/kg
C=CCOC(=O)OCCOCCOC(=O)OCC=C	350 mg/kg
CCCCN(C)C	184 mg/kg
CCCCOC(=O)CCCCCCCCC(=O)OCCCC	14900 mg/kg
CCOP(=S)(OCC)SCSC(C)(C)C	1.6 mg/kg
CCC(C)C(C)C(C)CCc1ccc(O)cc1 (stereo unspecified)	2100 mg/kg
c1ccc(Oc2ccccc2)cc1	2450 mg/kg
CC(O)CN(CCCN(C)C)CCCN(C)C (stereo unspecified)	1330 mg/kg
COCCOC(C)=O	1250 mg/kg
C=CCCl	284 mg/kg
Cc1ccccc1NC(=N)Nc1ccccc1C	70.7 mg/kg
COC(=O)c1ccccc1O	887 mg/kg
CC(C)CCCCCCCOP(OCCCCCCCC(C)C)OCCCCCCCC(C)C	12000 mg/kg
CCOP(=S)(NC(C)C)Oc1ccccc1C(=O)OC(C)C (stereo unspecified)	21.1 mg/kg
CCCCCCCCCC(=O)O	3320 mg/kg
CNC(=O)CSP(=O)(OC)OC	25 mg/kg
OCCCCCCO	3000 mg/kg
CSc1nnc(C(C)(C)C)c(=O)n1N	322 mg/kg
CCCCC(C#N)(Cn1cncn1)c1ccc(Cl)cc1 (stereo unspecified)	1600 mg/kg
N#C/N=C1\SCCN1Cc1ccc(Cl)nc1	285 mg/kg
CCOC(=O)C(Cl)C(C)=O (stereo unspecified)	233 mg/kg

Source: the CATMoS acute toxicity set (Mansouri et al. 2021)
